Reference: patent publication US9637469B2, “Pyridine derivative” (Teijin Pharma Limited, priority 2012, dated 2017)

target: T1, human URAT1 (Homo sapiens, UniProt Q96S37); assay: Test for inhibition of uric acid transport using human URAT1-expressing cells;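 further: three stars up to 0.2 µM two stars 0.2-2 µM one star 2-20 µM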; type: cell-based; conditions: HEK 293 cells expressing human URAT1; 14C-labeled uric acid 25 μM; uptake 37° C. for 5 min
T1 construct: Full-length cDNA of human URAT1 (hURAT1)
T1 sequence (Q96S37 1-553): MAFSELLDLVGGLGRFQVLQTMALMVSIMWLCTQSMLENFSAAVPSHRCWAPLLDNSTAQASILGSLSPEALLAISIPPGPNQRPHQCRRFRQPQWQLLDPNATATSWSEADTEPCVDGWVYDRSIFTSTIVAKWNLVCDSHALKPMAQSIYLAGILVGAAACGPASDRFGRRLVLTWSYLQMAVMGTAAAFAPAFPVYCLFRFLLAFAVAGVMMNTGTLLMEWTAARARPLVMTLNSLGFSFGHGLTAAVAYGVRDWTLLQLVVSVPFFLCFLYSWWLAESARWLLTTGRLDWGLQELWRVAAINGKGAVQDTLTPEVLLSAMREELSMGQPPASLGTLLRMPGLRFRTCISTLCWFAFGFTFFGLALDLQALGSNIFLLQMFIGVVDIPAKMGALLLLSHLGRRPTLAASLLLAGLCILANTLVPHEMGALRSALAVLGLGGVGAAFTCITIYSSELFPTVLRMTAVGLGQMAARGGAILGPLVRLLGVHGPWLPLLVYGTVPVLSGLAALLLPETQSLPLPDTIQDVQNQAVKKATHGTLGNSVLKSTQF
Outline: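 IC50 values reflect inhibition of ¹⁴C-uric acid uptake (25 μM final, 5 min, 37 °C) by compound. Cells were HEK293 stably expressing full-length human URAT1, preincubated in Na-gluconate-substituted HBSS. Radioactivity in lysates was expressed relative to DMSO control as 100%.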

| Compound | Inhibitory Activity (IC50 of uric acid transport inhibition) |
| --- | --- |
| O=C1OCc2nc(-c3cncc(Cl)c3)n(Cc3cc(Cl)ccc3Cl)c21 [Compound A221, 2-(5-chloropyridin-3-yl)-1-(2,5-dichlorobenzyl)-1H-furo[3,4-d]imidazol-6(4H)-one] | * * * |
| Cc1nc(-c2cncc(Cl)c2)n(C(C)c2cc(Cl)ccc2Cl)c1C(=O)O (stereo not drawn) [Compound A223, 2-(5-chloropyridin-3-yl)-1-(1-(2,5-dichlorophenyl)ethyl)-4-methyl-1H-imidazole-5-carboxylic acid] | * * |
| Cc1nc(-c2cncc(F)c2)n(Cc2cc(Cl)sc2Cl)c1C(=O)O [Compound A225, 1-((2,5-dichlorothiophen-3-yl)methyl)-2-(5-fluoropyridin-3-yl)-4-methyl-1H-imidazole-5-carboxylic acid] | * * * |
| Cc1nc(-c2cncc(Cl)c2)n(Cc2cc(Cl)sc2Cl)c1C(=O)O [Compound A226] | * * * |
| Cc1cncc(-c2nc(C)c(C(=O)O)n2Cc2cc(Cl)sc2Cl)c1 [Compound A227, 1-((2,5-dichlorothiophen-3-yl)methyl)-4-methyl-2-(5-methylpyridin-3-yl)-1H-imidazole-5-carboxylic acid] | * * * |
| Cc1nc(-c2cncc(F)c2)n(Cc2sc(Cl)cc2Cl)c1C(=O)O [Compound A228, 1-((2,4-dichlorothiophen-5-yl)methyl)-2-(5-fluoropyridin-3-yl)-4-methyl-1H-imidazole-5-carboxylic acid] | * * |
| Cc1nc(-c2cncc(Cl)c2)n(Cc2sc(Cl)cc2Cl)c1C(=O)O [Compound A229, 2-(5-chloropyridin-3-yl)-1-((2,4-dichlorothiophen-5-yl)methyl)-4-methyl-1H-imidazole-5-carboxylic acid] | * * |
| Cc1cncc(-c2nc(C)c(C(=O)O)n2Cc2sc(Cl)cc2Cl)c1 [Compound A230, 1-((2,4-dichlorothiophen-5-yl)methyl)-4-methyl-2-(5-methylpyridin-3-yl)-1H-imidazole-5-carboxylic acid] | * * |

Further lines, results first:

| Inhibitory Activity (IC50 of uric acid transport inhibition) | Compound |
| --- | --- |
| * * * | Cc1cncc(-c2nc(C)c(C(=O)O)n2Cc2cc(C)ccc2Cl)c1 [Compound A231, 1-(2-chloro-5-methylbenzyl)-4-methyl-2-(5-methylpyridin-3-yl)-1H-imidazole-5-carboxylic acid] |
| * * * | Cc1ccc(Cl)c(Cn2c(-c3cncc(Cl)c3)nc(C)c2C(=O)O)c1 [Compound A232, 1-(2-chloro-5-methylbenzyl)-2-(5-chloropyridin-3-yl)-4-methyl-1H-imidazole-5-carboxylic acid] |
| * * | Cc1nc(-c2cncc(F)c2)n(Cc2cccc3ccsc23)c1C(=O)O [Compound A234, 1-(benzo[b]thiophen-7-ylmethyl)-2-(5-fluoropyridin-3-yl)-4-methyl-1H-imidazole-5-carboxylic acid] |
| * * * | CC(C)c1nc(-c2cncc(Cl)c2)n(Cc2cccc3ccsc23)c1C(=O)O [Compound A235, 1-(benzo[b]thiophen-7-ylmethyl)-2-(5-chloropyridin-3-yl)-4-isopropyl-1H-imidazole-5-carboxylic acid] |
| * * * | O=C(O)c1c(C2CC2)nc(-c2cncc(Cl)c2)n1Cc1cccc2ccsc12 [Compound A236, 1-(benzo[b]thiophen-7-ylmethyl)-2-(5-chloropyridin-3-yl)-4-cyclopropyl-1H-imidazole-5-carboxylic acid] |

same assay, conditions: HEK 293 cells expressing human URAT1; 14C-labeled uric acid 25 μM; uptake 37° C. for 5 min; read-out: Inhibitory Activity (IC50 of uric acid transport inhibition)

| IC50 | Compound |
| --- | --- |
| 2 to 20 µM | Cc1nc(-c2cncc(F)c2)n(C(C)c2cc(Cl)ccc2Cl)c1C(=O)O (stereo not drawn) [Compound A222] |
| 2 to 20 µM | Cc1cncc(-c2nc(C)c(C(=O)O)n2C(C)c2cc(Cl)ccc2Cl)c1 (stereo not drawn) [Compound A224] |
